Laboratory results published in the NIST ThermoML archive (doi:10.1016/j.tca.2018.03.014).
Numbers after ± are expanded uncertainties.

What was measured:
[1] = Crystal; DTA
[2] = Molar enthalpy of transition or fusion; settings: Crystal 2; DSC

In the case of `CCCCCCCCCCCCCCCCCCO` [1-octadecanol], the Normal melting temperature [1] is reported as 58.10 ± 4 °C and the “Molar enthalpy of transition or fusion” value [2] is reported as 16 ± 0.335 kcal/mol.
